Measurements reported in ChEMBL document CHEMBL1156829 (Proc Natl Acad Sci U S A, 2008).

Tests used:
[1] = test system: Plasmodium falciparum; assay: NOVARTIS: Inhibition of Plasmodium falciparum 3D7 (drug-susceptible) proliferation in erythrocyte-based infection assay; format: functional, organism-based; conditions: Plasmodium falciparum, 3D7
[2] = NOVARTIS: Cytotoxicity against human hepatocellular carcinoma cell line (Huh7); format: toxicity, cell-based, Huh-7; conditions: Huh7 cells (hepatocellular carcinoma cell line)
[3] = test system: Plasmodium falciparum; assay: NOVARTIS: Inhibition of Plasmodium falciparum W2 (drug-resistant) proliferation in erythrocyte-based infection assay; format: functional, organism-based; conditions: Plasmodium falciparum, W2; read-out: EC50

SMILES: OC(CNc1cccc2ccccc12)Cn1c2ccccc2c2ccccc21 (configuration not stated)
- EC50 [1]: 2590 nM
- CC50 [2]: 14.9 µM
- EC50 [3]: 883 nM

SMILES: CCOC(=O)C1=C(C)N=c2sc(=Cc3cc(Cl)ccc3O)c(=O)n2C1c1ccc2c(c1)OCO2 (configuration not stated)
- EC50 [1]: 4930 nM
- CC50 [2]: > 100 µM
- EC50 [3]: 1310 nM

SMILES: Cc1ccc(-n2cc(C(=O)N(C)Cc3ccccc3)c3ccccc3c2=O)cc1C
- EC50 [1]: > 9840 nM
- CC50 [2]: > 100 µM
- EC50 [3]: 2930 nM

SMILES: COc1cc2ccccc2cc1C(=O)NCCOC12CC3CC(CC(C3)C1)C2
- EC50 [1]: 3500 nM
- CC50 [2]: > 100 µM
- EC50 [3]: 1140 nM

SMILES: CN1CCN(C(c2ccco2)c2sc3ncnn3c2O)CC1 (configuration not stated)
- EC50 [1]: > 1250 nM
- CC50 [2]: > 10 µM
- EC50 [3]: 1080 nM

SMILES: COc1ccc(CCNc2nc(NCCC3CCCN3C)ncc2C(=O)NCc2ccccc2)cc1OC (configuration not stated)
- EC50 [1]: 1060 nM
- CC50 [2]: > 10 µM
- EC50 [3]: > 802 nM

SMILES: Cc1cc(Nc2cccc(Cl)c2)nc(NCc2ccccc2)n1
- EC50 [1]: 51 nM
- CC50 [2]: 17.1 µM
- EC50 [3]: 607 nM

SMILES: CCc1ccc(N(C(=O)CCN2CCc3ccccc32)C(C(=O)NCc2ccccc2)c2ccc(OC)c(OC)c2)cc1 (configuration not stated)
- EC50 [1]: 5080 nM
- CC50 [2]: > 100 µM
- EC50 [3]: 4450 nM

SMILES: CCCCC(CC)C(=O)NCCCCNc1ccnc2cc(Cl)ccc12 (configuration not stated)
- EC50 [1]: 297 nM
- CC50 [2]: > 10.1 µM
- EC50 [3]: < 13.4 nM

SMILES: Cc1ccc(-c2cc(N3CCCC3CO)n3nccc3n2)cc1 (configuration not stated)
- EC50 [1]: 1140 nM
- CC50 [2]: > 100 µM
- EC50 [3]: 1250 nM

SMILES: O=C(O)C=CC(=O)N(C1CCCCC1)C1CCCCC1
- EC50 [1]: > 12500 nM
- CC50 [2]: > 100 µM
- EC50 [3]: 1860 nM

SMILES: Cc1ccccc1Oc1ccc(S(=O)(=O)NC(CC(C)C)C(=O)O)cc1 (configuration not stated)
- EC50 [1]: > 846 nM
- CC50 [2]: > 10 µM
- EC50 [3]: > 1250 nM

SMILES: CC1=C(C(=O)OCC(C)C)C(c2ccc(OCc3ccccc3)cc2)C2=C(CC(c3ccccc3)CC2=O)N1 (configuration not stated)
- EC50 [1]: 961 nM
- CC50 [2]: > 100 µM
- EC50 [3]: 659 nM

SMILES: COc1ccc(OC)c(-c2ccc(O)c(CN3CCCCCC3)c2)c1
- EC50 [1]: 570 nM
- CC50 [2]: > 10 µM
- EC50 [3]: 87.6 nM

SMILES: CC(=O)Nc1ccc2c(c1)C(=O)N(C(C(=O)NCc1ccccc1)C1CCCCC1)[C@@H](Cc1ccc(O)cc1)C(=O)N2 (some centres not stated)
- EC50 [1]: 807 nM
- CC50 [2]: 0.659 µM
- EC50 [3]: 555 nM

SMILES: CCOC(=O)c1c(NC(=O)CSc2nnc(CNC(=O)c3cccc(OC)c3)n2C2CCCCC2)sc2c1CCCC2
- EC50 [1]: > 295 nM
- CC50 [2]: > 10 µM
- EC50 [3]: > 1670 nM

SMILES: CCCCN1C(=O)N(c2ccccc2C)C(C)(O)CC1(C)C (configuration not stated)
- EC50 [1]: > 1520 nM
- CC50 [2]: > 10 µM
- EC50 [3]: > 261 nM

SMILES: O=[N+]([O-])c1ccc(C=NNc2nc3ccccc3[nH]2)cc1
- EC50 [1]: 818 nM
- CC50 [2]: > 100 µM
- EC50 [3]: 742 nM

SMILES: CN(c1ccc(Br)cc1)S(=O)(=O)c1ccc2[nH]cc(C(=O)N3CCN(c4ccccc4)CC3)c(=O)c2c1
- EC50 [1]: > 1250 nM
- CC50 [2]: > 10 µM
- EC50 [3]: < 2.83 nM

SMILES: O=C1C(=Cc2ccccc2)Oc2c1ccc(O)c2CN1CCCCC1
- EC50 [1]: 1420 nM
- CC50 [2]: > 100 µM
- EC50 [3]: 91 nM

SMILES: c1ccc(CC[n+]2cc(-c3ccccc3)n3c2CCC3)cc1
- EC50 [1]: 660 nM
- CC50 [2]: > 100 µM
- EC50 [3]: 684 nM

SMILES: COc1cc2c(OC3OCC(OC)C(OC)C3O)c3c(c(-c4ccc5c(c4)OCO5)c2cc1OC)C(=O)OC3 (configuration not stated)
- EC50 [1]: 81.7 nM
- CC50 [2]: > 10 µM
- EC50 [3]: 28.3 nM

SMILES: CCN1/C(=C/C=C/c2oc3ccc4ccccc4c3[n+]2CC)Oc2ccc3ccccc3c21
- EC50 [1]: > 1250 nM
- CC50 [2]: > 10 µM
- EC50 [3]: 578 nM

SMILES: CC(=O)c1c(C)oc2ccc(NS(=O)(=O)c3cccc(C(=O)O)c3)cc12
- EC50 [1]: > 1250 nM
- CC50 [2]: > 10 µM
- EC50 [3]: > 515 nM

SMILES: COc1ccccc1NC(=O)Cn1cnc2sc(C(=O)Nc3ccc(F)cc3)c(C)c2c1=O
- EC50 [1]: 513 nM
- CC50 [2]: > 10 µM
- EC50 [3]: > 1710 nM

SMILES: COc1cc(C2CC(=O)NC3=C2C(=O)CC(c2ccccc2Cl)C3)ccc1O (configuration not stated)
- EC50 [1]: 815 nM
- CC50 [2]: > 100 µM
- EC50 [3]: 109 nM

SMILES: C=CCNCc1cc(-c2cc(OC)ccc2OC)ccc1O
- EC50 [1]: 1100 nM
- CC50 [2]: > 10 µM
- EC50 [3]: 840 nM

SMILES: CCC(=O)NCc1nc2ccccc2n1Cc1ccc(C)cc1
- EC50 [1]: > 12500 nM
- CC50 [2]: > 100 µM
- EC50 [3]: > 9760 nM

SMILES: C=C(Cl)CSc1nnc(CCNC(=O)c2ccc(C)cc2)n1-c1ccc(F)cc1
- EC50 [1]: > 12500 nM
- CC50 [2]: > 100 µM
- EC50 [3]: 7430 nM

SMILES: O=C(Nc1ccc(Oc2cccc(Oc3ccc(NC(=O)c4ccc(Br)o4)cc3)c2)cc1)c1ccc(Br)o1
- EC50 [1]: 4420 nM
- CC50 [2]: > 100 µM
- EC50 [3]: 4710 nM

SMILES: O=C(O)c1ccc([C@@H]2Nc3c(ccc4ccccc34)[C@@H]3C=CC[C@@H]32)cc1
- EC50 [1]: > 1250 nM
- CC50 [2]: > 10 µM
- EC50 [3]: 1340 nM

SMILES: C=CC1CN2CCC1CC2C(OC(=O)c1ccco1)c1ccnc2ccccc12 (configuration not stated)
- EC50 [1]: 35.7 nM
- CC50 [2]: 41.8 µM
- EC50 [3]: 181 nM

SMILES: CCOC(=O)c1ccc2c(c1)[C@@H]1C=CC[C@@H]1[C@H](c1cccc(OC)c1OC)N2
- EC50 [1]: 471 nM
- CC50 [2]: > 100 µM
- EC50 [3]: 31.8 nM

SMILES: Cc1ccccc1Nc1nc(NCc2ccco2)c2ccccc2n1
- EC50 [1]: 548 nM
- CC50 [2]: 15.6 µM
- EC50 [3]: 529 nM
